In US20250059165A1, “PIPERIDINYLPYRIDINYLCARBONITRILE DERIVATIVES AS INHIBITORS OF GLUTAMINYL-PEPTIDE CYCLOTRANSFERASE AND GLUTAMINYL-PEPTIDE CYCLOTRANSFERASE LIKE PROTEIN” (Boehringer Ingelheim International GmbH, priority 2023, published 2025):

Assays:
QPCT = target: T1, QPCT (Homo sapiens, UniProt Q16769); assay: Assay A: biochemical QPCT activity assay (MALDI-TOF MS, CD47 peptide substrate); conditions: 0.5 nM enzyme, 20 μM CD47 peptide substrate; read-out: Inhibition of QPCT: IC50
T1 construct: purchased Origine (OriGene) TP700028
Procedure: (§1) QPCT or QPCTL dependent conversion of N-terminal glutamine to pyroglutamate of CD47 was monitored via MALDI-TOF MS. Test compounds were dissolved in 100% DMSO and serially diluted into clear 1,536-well microtiter plates. […] The plates were incubated for 10 min in a humidified incubator at 24° C. Subsequently, 2.5 μL of CD47 peptide substrate surrogate (^19[…]^33) was added to each well (final concentration: 10 μM for QPCTL/20 μM for QPCT). […] The plates were sealed with an adhesive foil, mixed for 30 s at 1,000 rpm and stored at room temperature until preparation of the MALDI target plates. MALDI target plates were prepared as described previously. […] QPCT or QPCTL activity was monitored by calculating the ratio between product and internal standard signals followed by normalization to high (100% activity) and low (0% activity) controls. Determination of compound potencies was obtained by fitting the dose-response data to a four-parameter logistical equation.

[1] = tested on: SIRPα signalling induced by Raji cells; assay: Assay B: SIRPα signalling assay using Raji cells; format: cell-based; conditions: Homo sapiens, 48 h compound incubation, Jurkat PathHunter SIRPαV1 reporter cells, read-out: Inhibition of SIRPα signalling induced by Raji cells: IC50
Procedure: (§2) Two cell types are independently used: the Raji cell line (lymphoblast-like human cell line derived from B lymphocytes from a Burkitt's lymphoma patient in 1963) and A549 cells (adenocarcinomic human alveolar basal epithelial cells).
(§3) Test compounds were dissolved in 100% DMSO and serially diluted into a white 384-well microtiter cell culture plate (PerkinElmer #60076780 in case of Raji assay; PDL-coated plates Greiner #781945 in case of A549 assay). 5000 Raji cells (ATCC #CC86) or 5000 A549 cells (ATCC #CCL-185) in Assay Complete Cell Plating reagent 30 (DiscoverX 93-0563R30B) were added per well. The assay plate was incubated for 48 h at 37° C., 95% humidity and 5% CO2. 15000 reporter cells (Jurkat PathHunter SIRPαV1, DiscoverX #93-1135C19) were added to each well, and the plate was incubated for 5 h at 37° C., 95% humidity and 5% CO2. Bioassay reagent 1 of the PathHunter Bioassay detection kit (DiscoverX 93-0001) was added to each well of the plate using a multichannel pipette followed by a 15 min incubation at room temperature. Afterwards bioassay reagent 2 was added followed by […] incubation at room temperature (incubation in the dark). The analysis of the data was performed using the luminescence signal generated by beta-galactosidase in the PathHunter reporter cell line. The luminescence measurement was done using a Pherastar Multi-Mode Reader. Dose-response curves & IC50 data were calculated with 4-parameter sigmoidal dose response formula.

[2] = tested on: SIRPα signalling induced by A549 cells; assay: Assay B: SIRPα signalling assay using A549 cells; format: cell-based; conditions: Homo sapiens, 48 h compound incubation, Jurkat PathHunter SIRPαV1 reporter cells, read-out: Inhibition of SIRPα signalling induced by A549 cells: IC50
Procedure: as §2, §3

QPCTL = target: T2, QPCTL (Homo sapiens, UniProt Q9NXS2); assay: Assay A: biochemical QPCTL activity assay (MALDI-TOF MS, CD47 peptide substrate); conditions: 0.5 nM enzyme, 10 μM CD47 peptide substrate; read-out: Inhibition of QPCTL: IC50
T2 construct: made in house
Procedure: as §1

[3] = Assay C: permeability in CACO-2 cells; format: in vitro ADME; conditions: human, pH 7.2; for efflux ratio: Caco-2, Permeability B-A/Permeability A-B; for Papp A→B: Caco-2, apical to basolateral
Procedure: Caco-2 cells (1−2×10^5 cells/1 cm^2 area) are seeded on filter inserts (Costar transwell polycarbonate or PET filters, 0.4 µm pore size) and cultured (DMEM) for 10 to 25 days. Compounds are dissolved in appropriate solvent (like DMSO, 1-20 mM stock solutions). […] The transport solution (TL) is applied to the apical or basolateral donor side for measuring A-B or B-A permeability (3 filter replicates), respectively. Samples are collected at the start and end of experiment from the donor and at various time intervals for up to 2 hours also from the receiver side for concentration measurement by HPLC-MS/MS or scintillation counting. Sampled receiver volumes are replaced with fresh receiver solution. Efflux Ratio (ER)=Permeability B-A/Permeability A-B

T1 sequence (Q16769 29-361): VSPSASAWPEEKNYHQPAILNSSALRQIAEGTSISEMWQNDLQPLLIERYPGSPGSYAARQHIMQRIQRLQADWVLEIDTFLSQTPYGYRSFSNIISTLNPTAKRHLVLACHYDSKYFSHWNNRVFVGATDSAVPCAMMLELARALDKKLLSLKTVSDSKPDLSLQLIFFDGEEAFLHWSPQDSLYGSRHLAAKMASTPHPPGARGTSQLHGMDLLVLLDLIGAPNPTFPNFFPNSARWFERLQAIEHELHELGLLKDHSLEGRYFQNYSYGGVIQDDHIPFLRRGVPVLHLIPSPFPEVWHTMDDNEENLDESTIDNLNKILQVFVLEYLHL
T2 sequence (Q9NXS2 whole entry): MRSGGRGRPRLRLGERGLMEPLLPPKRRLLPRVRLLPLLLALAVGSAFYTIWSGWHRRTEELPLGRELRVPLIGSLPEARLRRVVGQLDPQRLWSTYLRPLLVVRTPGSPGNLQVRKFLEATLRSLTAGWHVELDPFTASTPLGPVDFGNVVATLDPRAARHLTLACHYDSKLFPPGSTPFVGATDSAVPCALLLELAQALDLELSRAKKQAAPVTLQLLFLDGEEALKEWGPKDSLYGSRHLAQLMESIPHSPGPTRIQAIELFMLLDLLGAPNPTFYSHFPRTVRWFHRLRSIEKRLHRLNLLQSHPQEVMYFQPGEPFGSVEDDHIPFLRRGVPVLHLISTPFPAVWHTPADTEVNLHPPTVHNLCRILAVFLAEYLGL

SMILES | IC50 (QPCT) | IC50 [1] | IC50 [2] | IC50 (QPCTL) | efflux ratio [3] | Papp A→B [3]
Cn1cnnc1C1(F)CCN(c2c(C#N)ccnc2-c2cnn3nc(-c4cccnc4Cl)ccc23)CC1 [Example 17] | 5 nM | 274 nM | 71 nM | 5 nM | – | –
Cn1cnnc1C1(F)CCN(c2c(C#N)ccnc2-c2cnc3nn(Cc4ccc(C(F)(F)F)nc4)nc3c2)CC1 [Example 13] | 24 nM | 596 nM | 358 nM | 8 nM | 9 | 6.2 ×10⁻⁶ cm/s
Cn1cnnc1C1(F)CCN(c2c(C#N)cc(C(C)(C)O)nc2-c2cnc3nn(C(C)(C)C)c(Cl)c3c2)CC1 [Example 2] | – | 20 nM | 40 nM | – | – | 4.5 ×10⁻⁶ cm/s
Cn1cc(-c2ccc3c(-c4nccc(C#N)c4N4CCC(F)(c5nncn5C)CC4)cnn3n2)cn1 [Example 25] | 6 nM | 150 nM | 78 nM | 1 nM | 7.7 | 5.3 ×10⁻⁶ cm/s
Cn1cnnc1C1(F)CCN(c2c(C#N)cc(C3CC3(F)F)nc2-c2cnc3nn(C(C)(C)C)cc3c2)CC1 (stereo not shown) [Example 4] | – | 15 nM | 17 nM | – | – | 8.8 ×10⁻⁶ cm/s
Cc1ccccc1-c1ccc2c(-c3nccc(C#N)c3N3CCC(F)(c4nncn4C)CC3)cnn2n1 [Example 19] | – | 20 nM | 6 nM | – | – | –
COc1cnc(-c2ccc(F)nc2)c(N2CCC(F)(c3nncn3C)CC2)c1C#N [Example 7] | 12 nM | 568 nM | 200 nM | 8 nM | 5.5 | 15 ×10⁻⁶ cm/s
Cn1cnnc1C1(F)CCN(c2c(C#N)ccnc2-c2cncc(-c3ncco3)c2)CC1 [Example 11] | 48 nM | 1170 nM | 419 nM | 13 nM | 5 | 13 ×10⁻⁶ cm/s
COc1cc(C#N)c(N2CCC(F)(c3nncn3C)CC2)c(-c2ccc(F)nc2)n1 [Example 5] | 9 nM | 617 nM | 60 nM | 4 nM | 1.6 | 27 ×10⁻⁶ cm/s
Cc1ccc(-c2ccc3c(-c4nccc(C#N)c4N4CCC(F)(c5nncn5C)CC4)cnn3n2)c(C)c1 [Example 32] | – | 72 nM | 21 nM | – | – | 60 ×10⁻⁶ cm/s
Cn1cnnc1C1(F)CCN(c2c(C#N)ccnc2-c2cnn3nc(-c4cccc(Cl)c4)ccc23)CC1 [Example 28] | – | 70 nM | 53 nM | – | – | 28 ×10⁻⁶ cm/s
COCCOc1ncc(-c2nccc(C#N)c2N2CCC(F)(c3nncn3C)CC2)cn1 [Example 10] | 30 nM | 536 nM | 283 nM | 8 nM | 13.1 | 1.6 ×10⁻⁶ cm/s
Cn1cnnc1C1(F)CCN(c2c(C#N)cc(C(F)(F)F)nc2-c2cnc3occc3c2)CC1 [Example 15] | 58 nM | 296 nM | 410 nM | 15 nM | 1.6 | 47 ×10⁻⁶ cm/s
Cc1noc(C)c1-c1ccc2c(-c3nccc(C#N)c3N3CCC(F)(c4nncn4C)CC3)cnn2n1 [Example 24] | 8 nM | 981 nM | 184 nM | 14 nM | 4.6 | 16 ×10⁻⁶ cm/s
Cn1cnnc1C1(F)CCN(c2c(C#N)cc(C3CC3(F)F)nc2-c2ccc(F)nc2)CC1 (stereo not shown) [Example 3] | 4 nM | 131 nM | 40 nM | 1 nM | 1.3 | 47 ×10⁻⁶ cm/s
Cn1cnnc1C1CCN(c2ncccc2-c2ccc(F)nc2)CC1 [SEN177, reference compound] | – | 1360 nM | 214 nM | – | – | –
Cn1cnnc1C1(F)CCN(c2c(C#N)cc(C(F)(F)F)nc2-c2cnc3nc(C(C)(C)C)oc3c2)CC1 [Example 16] | – | 27 nM | 32 nM | – | – | 33 ×10⁻⁶ cm/s

Results, then the compound that gave them:

IC50 (QPCT) | IC50 [1] | IC50 [2] | IC50 (QPCTL) | efflux ratio [3] | Papp A→B [3] | SMILES
2 nM | 53 nM | 30 nM | 1 nM | 6.2 | 13 ×10⁻⁶ cm/s | Cn1cnnc1C1(F)CCN(c2c(C#N)ccnc2-c2cnc3nc(-c4cccc(Cl)c4)ccn23)CC1 [Example 33]
2 nM | 148 nM | 101 nM | 3 nM | 11.5 | 7.2 ×10⁻⁶ cm/s | Cn1cnnc1C1(F)CCN(c2c(C#N)ccnc2-c2cnn3nc(-c4cscc4C#N)ccc23)CC1 [Example 26]
4 nM | 158 nM | 46 nM | 4 nM | – | – | COc1ccc(-c2ccc3c(-c4nccc(C#N)c4N4CCC(F)(c5nncn5C)CC4)cnn3n2)c(F)c1 [Example 23]
3 nM | 83 nM | 29 nM | 2 nM | – | – | Cn1cnnc1C1(F)CCN(c2c(C#N)ccnc2-c2cnn3nc(-c4ccc(Cl)cc4Cl)ccc23)CC1 [Example 20]
3 nM | 54 nM | 31 nM | 3 nM | 1.2 | 54 ×10⁻⁶ cm/s | Cn1cnnc1C1(F)CCN(c2c(C#N)ccnc2-c2cnn3nc(-c4ccccc4F)ccc23)CC1 [Example 31]
1 nM | 64 nM | 27 nM | 2 nM | 1.7 | 39 ×10⁻⁶ cm/s | Cn1cnnc1C1(F)CCN(c2c(C#N)ccnc2-c2cnn3nc(-c4ccccc4Cl)ccc23)CC1 [Example 29]
2 nM | 117 nM | 51 nM | 2 nM | – | – | Cn1cnnc1C1(F)CCN(c2c(C#N)ccnc2-c2cnn3nc(-c4ccccc4C#N)ccc23)CC1 [Example 22]
4 nM | 103 nM | 39 nM | 2 nM | 4.5 | 5.8 ×10⁻⁶ cm/s | Cn1cnnc1C1(F)CCN(c2c(C#N)ccnc2-c2cnc(F)c(N)c2)CC1 [Example 9]
3 nM | 77 nM | 41 nM | 2 nM | 6.3 | 8.7 ×10⁻⁶ cm/s | Cn1cnnc1C1(F)CCN(c2c(C#N)cc(C(C)(C)O)nc2-c2ccc(F)nc2)CC1 [Example 1]
1 nM | 87 nM | 17 nM | 2 nM | 0.7 | 46 ×10⁻⁶ cm/s | CC(C)c1ccccc1-c1ccc2c(-c3nccc(C#N)c3N3CCC(F)(c4nncn4C)CC3)cnn2n1 [Example 30]
4 nM | 150 nM | 45 nM | 3 nM | 9.9 | 9.4 ×10⁻⁶ cm/s | Cn1cnnc1C1(F)CCN(c2c(C#N)ccnc2-c2cnc3nn(Cc4ccccc4)nc3c2)CC1 [Example 12]
1 nM | 8 nM | 12 nM | 1 nM | 65 | 0.2 ×10⁻⁶ cm/s | Cn1c(N)nnc1C1CCN(c2ncccc2-c2ccc(F)nc2)CC1 [Prior art Compound 6, reference compound]
1 nM | 16 nM | 11 nM | 2 nM | – | – | Cn1cnnc1C1(F)CCN(c2c(C#N)ccnc2-c2cnn3nc(-c4c(F)cccc4F)ccc23)CC1 [Example 21]
1 nM | 44 nM | 16 nM | 2 nM | – | – | Cn1cnnc1C1(F)CCN(c2c(C#N)ccnc2-c2cnn3nc(-c4cc(Cl)ccc4C#N)ccc23)CC1 [Example 18]
